Data reported in PubChem BioAssay (NCI).
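Compound exposure: 48 hours, 5 concentrations, 96-well plates. Definition used: TGI = concentration required for complete inhibition of growth.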

Experiments:
Test in all cases: inhibition of tumour cell growth, NCI panel, 48 h
[1] = tested on: RXF-631 renal
[2] = tested on: RPMI-8226 leukemia
[3] = tested on: K-562 leukemia
[4] = tested on: CCRF-CEM leukemia
[5] = tested on: LXFL 529 NSCLC
[6] = tested on: SNB-75 CNS
[7] = tested on: COLO 205 colon
[8] = tested on: HCT-116 colon
[9] = tested on: UACC-257 melanoma
[10] = tested on: DMS 273 small cell lung
[11] = tested on: OVCAR-3 ovarian
[12] = tested on: NCI-H460 lung
[13] = tested on: SR leukemia
[14] = tested on: HOP-92 NSCLC
[15] = tested on: SK-MEL-28 melanoma
[16] = tested on: DMS 114 small cell lung
[17] = tested on: UO-31 renal
[18] = tested on: MOLT-4 leukemia
[19] = tested on: TK-10 renal
[20] = tested on: SF-295 CNS
[21] = tested on: U251 CNS
[22] = tested on: KM12 colon
[23] = tested on: UACC-62 melanoma
[24] = tested on: M14 melanoma
[25] = tested on: HL-60(TB) leukemia
[26] = tested on: ACHN renal
[27] = tested on: M19-MEL melanoma
[28] = tested on: SW-620 colon
[29] = tested on: 786-0 renal
[30] = tested on: OVCAR-5 ovarian
[31] = tested on: OVCAR-4 ovarian
[32] = tested on: LOX IMVI melanoma
[33] = tested on: NCI-H226 lung
[34] = tested on: SK-OV-3 ovarian
[35] = tested on: NCI-H522 lung
[36] = tested on: A498 renal
[37] = tested on: CAKI-1 renal
[38] = tested on: EKVX NSCLC
[39] = tested on: OVCAR-8 ovarian
[40] = tested on: HOP-62 NSCLC
[41] = tested on: IGROV1 ovarian
[42] = tested on: HT29 colon
[43] = tested on: SF-539 CNS
[44] = tested on: NCI-H23 lung
[45] = tested on: SF-268 CNS
[46] = tested on: DLD-1 colon
[47] = tested on: SK-MEL-5 melanoma
[48] = tested on: SNB-78 CNS
[49] = tested on: A549 NSCLC
[50] = tested on: SK-MEL-2 melanoma
[51] = tested on: HCT-15 colon
[52] = tested on: SN12C renal
[53] = tested on: HOP-18 NSCLC
[54] = tested on: RXF 393 renal
[55] = tested on: HCC-2998 colon
[56] = tested on: MALME-3M melanoma
[57] = tested on: SNB-19 CNS
[58] = tested on: KM20L2 colon

Measured: TGI

NC(=O)c1cn(C2OC(CO)C(O)C2O)c(=O)[nH]c1=O (stereo not drawn)
> 100 µM: [1] | [2] | [3] | [4] | [5] | [6] | [7] | [8] | [9] | [10] | [11] | [12] | [13] | [14] | [15] | [16] | [17] | [18] | [19] | [20] | [21] | [22] | [23] | [24] | [25] | [26] | [27] | [28] | [29] | [30] | [31] | [32] | [33] | [34] | [35] | [36] | [37] | [38] | [39] | [40] | [41] | [42] | [43] | [44] | [45] | [46] | [47] | [48] | [49] | [50] | [51]

O=C1C2c3[nH]c4ccccc4c3C3CCCCC3C2C(=O)N1c1ccccc1 (stereo not drawn)
95.2 µM: [53]
> 100 µM: [1] | [2] | [3] | [4] | [5] | [7] | [52] | [10] | [11] | [12] | [13] | [15] | [16] | [17] | [18] | [19] | [20] | [21] | [22] | [23] | [24] | [55] | [25] | [26] | [27] | [28] | [29] | [30] | [31] | [32] | [33] | [36] | [56] | [38] | [39] | [57] | [41] | [42] | [43] | [44] | [45] | [46] | [47] | [48] | [49] | [51]
32.9 µM: [6]
52.4 µM: [34]
62.3 µM: [54]

N#CC(C#N)=C1NN=C(Cl)c2ccccc21
> 100 µM: [1] | [2] | [3] | [4] | [5] | [6] | [7] | [52] | [9] | [10] | [11] | [12] | [14] | [15] | [53] | [16] | [17] | [18] | [19] | [20] | [21] | [58] | [54] | [22] | [23] | [24] | [55] | [25] | [26] | [27] | [28] | [29] | [30] | [31] | [32] | [34] | [35] | [37] | [56] | [38] | [39] | [40] | [41] | [42] | [43] | [44] | [45] | [46] | [47] | [49] | [50] | [51]
